In brackets after ≈: the same amount, converted by molar mass. Where two headings read alike, the source gives them in different places.
Key:
Assay type in all cases: cell-based
[1] = tested on: Hemophilus influenzae; assay: Agar-dilution MIC
[2] = tested on: Peptococcus asaccharolyticus; assay: Agar-dilution MIC (anaerobes); details: Table 15
Description: The MIC values were determined by the agar-dilution method, and are recorded in Table 15, which follows.

[3] = tested on: Peptostreptococcus anaerobius; assay: Agar-dilution MIC (anaerobes)
[4] = tested on: Streptococcus sp. (Group D); assay: Agar-dilution MIC
Source text: The agar-dilution procedure described by the International Collaborative study (ICS) group was used to determine the minimum inhibitory concentrations (MIC's).

[5] = tested on: Bacteroides vulgatis; assay: Agar-dilution MIC (anaerobes); details: Table 12; 24-hour; B. vulgatis 1563
Source text: (§1) The A41030 antibiotics, factors A, B, and C, are active against a genus of anaerobic bacteria identified as Bacteroides sp., the 24-hour MIC values being determined by the agar-dilution method, and are set forth in Table 12, which follows.

[6] = tested on: Bacteroides corrodens; assay: Agar-dilution MIC (anaerobes); details: Table 12; 24-hour; B. corrodens 1874
Source text: as §1

[7] = tested on: Clostridium perfringens; details: Table 14; Clostridium perfringens 81
[8] = tested on: Clostridium difficile; details: Table 16
Source text: The A41030 antibiotic factors A, B, C, D, E, F, and G, are also active against a number of strains of Clostridium difficile, as determined by the agar-dilution method.

## NC1C(=O)NC2Cc3ccc(c(Cl)c3)Oc3cc4cc(c3O)Oc3ccc(cc3Cl)C(O)C3NC(=O)C(NC(=O)C4NC(=O)C(NC2=O)c2cc(O)cc(c2)Oc2cc1ccc2O)c1cc(Cl)c(O)c(c1)-c1c(O)cc(O)cc1C(C(=O)O)NC3=O (stereo not drawn) [A41030 factor A]
[1]; Table 9, strain R272
  MIC: 16 µg/mL (≈ 13 µM)
[1]; Table 9, strain R274
  MIC: 16 µg/mL (≈ 13 µM)
[1]; Table 9, strain S. Ford
  MIC: 16 µg/mL (≈ 13 µM)
[1]; Table 17, 24 hours, Haemophilus influenzae 251
  MIC: 2 µg/mL (≈ 1.62 µM)
[1]; Table 17, 24 hours, Haemophilus influenzae Brun
  MIC: 8 µg/mL (≈ 6.49 µM)
[1]; Table 18, 24 hours, Haemophilus influenzae 76
  MIC: 4 µg/mL (≈ 3.24 µM)
[1]; Table 18, 24 hours, Haemophilus influenzae 312
  MIC: 2 µg/mL (≈ 1.62 µM)
[1]; Table 18, 24 hours, Haemophilus influenzae 4842
  MIC: 2 µg/mL (≈ 1.62 µM)
[1]; Table 18, 24 hours, Haemophilus influenzae 16836
  MIC: 4 µg/mL (≈ 3.24 µM)
[1]; Table 18, 24 hours, Haemophilus influenzae Bond
  MIC: 2 µg/mL (≈ 1.62 µM)
[1]; Table 18, 24 hours, Haemophilus influenzae C.L.
  MIC: 4 µg/mL (≈ 3.24 µM)
[1]; Table 18, 24 hours, Haemophilus influenzae Mx366
  MIC: 2 µg/mL (≈ 1.62 µM)
[1]; Table 18, 24 hours, Haemophilus influenzae Mx371
  MIC: 2 µg/mL (≈ 1.62 µM)
[2]; Pc. asaccharolyticus 1302
  MIC: ≤ 0.03 µg/mL
[2]; Pc. asaccharolyticus 1344
  MIC: 0.5 µg/mL (≈ 0.405 µM)
[3]; Table 14, Peptostreptococcus anaerobius 1428
  MIC: ≤ 0.25 µg/mL
[3]; Table 15, Ps. anaerobius 8
  MIC: 0.5 µg/mL (≈ 0.405 µM)
[3]; Table 15, Ps. anaerobius 52
  MIC: 0.5 µg/mL (≈ 0.405 µM)
[3]; Table 15, Ps. anaerobius 59
  MIC: 0.5 µg/mL (≈ 0.405 µM)
[3]; Table 15, Ps. anaerobius 1418
  MIC: ≤ 0.03 µg/mL
[3]; Table 15, Ps. anaerobius 1428
  MIC: 0.5 µg/mL (≈ 0.405 µM)
[3]; Table 15, Ps. anaerobius 1451
  MIC: 0.5 µg/mL (≈ 0.405 µM)
[3]; Table 15, Ps. anaerobius 1477
  MIC: 0.5 µg/mL (≈ 0.405 µM)
[4]; Table 11, Streptococcus sp. (Group D) 238
  MIC: 0.25 µg/mL (≈ 0.203 µM)
[4]; Table 11, Streptococcus sp. (Group D) 282
  MIC: 0.25 µg/mL (≈ 0.203 µM)
[4]; Table 11, Streptococcus sp. (Group D) 9901
  MIC: 0.25 µg/mL (≈ 0.203 µM)
[4]; Table 11, Streptococcus sp. (Group D) 12253F
  MIC: 0.25 µg/mL (≈ 0.203 µM)
[4]; Table 11, Streptococcus sp. (Group D) Guze
  MIC: 0.25 µg/mL (≈ 0.203 µM)
[4]; Table 17, 24 hours, Streptococcus sp. Group D 9960
  MIC: 2 µg/mL (≈ 1.62 µM)
[4]; Table 17, 24 hours, Streptococcus sp. Group D X66
  MIC: 1 µg/mL (≈ 0.811 µM)
[4]; Table 18, 24 hours, Streptococcus sp. Group D 2041
  MIC: 0.5 µg/mL (≈ 0.405 µM)
[4]; Table 18, 24 hours, Streptococcus sp. Group D 2058
  MIC: 0.5 µg/mL (≈ 0.405 µM)
[4]; Table 18, 24 hours, Streptococcus sp. Group D 8043
  MIC: 0.25 µg/mL (≈ 0.203 µM)
[4]; Table 18, 24 hours, Streptococcus sp. Group D 9901
  MIC: 1 µg/mL (≈ 0.811 µM)
[4]; Table 18, 24 hours, Streptococcus sp. Group D 9960
  MIC: 0.5 µg/mL (≈ 0.405 µM)
[4]; Table 18, 24 hours, Streptococcus sp. Group D 12253F
  MIC: 0.25 µg/mL (≈ 0.203 µM)
[4]; Table 18, 24 hours, Streptococcus sp. Group D Mx161
  MIC: 0.25 µg/mL (≈ 0.203 µM)
[4]; Table 18, 24 hours, Streptococcus sp. Group D X66
  MIC: 0.25 µg/mL (≈ 0.203 µM)
[5]
  MIC: 32 µg/mL (≈ 25.9 µM)
[6]
  MIC: 32 µg/mL (≈ 25.9 µM)
[7]
  MIC: 0.5 µg/mL (≈ 0.405 µM)
[8]; C. difficile 78
  MIC: 1.0 µg/mL (≈ 0.811 µM)
[8]; C. difficile 107B
  MIC: 1.0 µg/mL (≈ 0.811 µM)
[8]; C. difficile 111F
  MIC: 1.0 µg/mL (≈ 0.811 µM)
[8]; C. difficile 1153
  MIC: 1.0 µg/mL (≈ 0.811 µM)
[8]; C. difficile 2634
  MIC: 1.0 µg/mL (≈ 0.811 µM)
[8]; C. difficile 3424-5B
  MIC: 1.0 µg/mL (≈ 0.811 µM)
[8]; C. difficile 3816
  MIC: 1.0 µg/mL (≈ 0.811 µM)
[8]; C. difficile 3950
  MIC: 1.0 µg/mL (≈ 0.811 µM)
[8]; C. difficile 6890
  MIC: 1.0 µg/mL (≈ 0.811 µM)
[8]; C. difficile 8484
  MIC: 1.0 µg/mL (≈ 0.811 µM)
[8]; C. difficile A-194
  MIC: 1.0 µg/mL (≈ 0.811 µM)
[8]; C. difficile A-195
  MIC: 1.0 µg/mL (≈ 0.811 µM)
[8]; C. difficile A-196
  MIC: 1.0 µg/mL (≈ 0.811 µM)
[8]; C. difficile A-279
  MIC: 1.0 µg/mL (≈ 0.811 µM)
[8]; C. difficile A-280
  MIC: 1.0 µg/mL (≈ 0.811 µM)
[8]; C. difficile A-281
  MIC: 1.0 µg/mL (≈ 0.811 µM)
[8]; C. difficile WAL-2112
  MIC: 1.0 µg/mL (≈ 0.811 µM)
[8]; C. difficile WAL-3657
  MIC: 1.0 µg/mL (≈ 0.811 µM)
[8]; C. difficile WAL-4268
  MIC: 1.0 µg/mL (≈ 0.811 µM)

From US4559323A, “A41030 Antibiotics” (Eli Lilly and Company, priority 1984, dated 1985)
